Source: PubChem BioAssay (NCI)
“And” between values parts separate entries of the source, which are not always exact repeats. Equal entries are not always repeated.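 Protocol summary: plate cells (96-well), add compound at 5 concentrations, incubate 48 h, interpolate endpoints linearly. Abbreviation: GI50, concentration required for 50% inhibition of growth. At the TGI there is no net growth.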 Where a SMILES comes first, the peptide text is derived from it. Bridges are numbered along the chain shown (N, C = ends). [ ]: non-standard residue; d: D form. ξ: configuration not given here. ξThr(3R) = C[C@@H](O)C(N)C(=O)O; S5 = C=CCCC[C@](C)(N)C(=O)O

test system: MDA-MB-468 breast; assay: inhibition of tumour cell growth, NCI panel, 48 h

First: Clc1ccc2ncc(-c3cccc(NC4CNC4)n3)n2c1
Second: Cc1ccc(Cl)cc1NC(=O)c1cc2ccccc2cc1O
The GI50 of the first is 3.7-fold higher: 4.86 µM for the first, 1.31 µM for the second.

First: Cc1ccc(NC(=O)Nc2c(Cl)cccc2Cl)cn1
Second: COc1ccc(Cl)cc1Nc1nc(C(F)(F)F)ccc1C(=O)N/N=C/c1cccnc1
The GI50 of the first is 3.9-fold higher: 3.12 µM for the first, 0.797 µM for the second.

Compared with `C[C@@H](NC(=O)c1ncnc(N)c1Cl)c1ncc(C(=O)Nc2cc(C(F)(F)F)c(Cl)cn2)s1`, `O=C(Nc1cccc(-n2cc(-c3ccncc3)c(-c3ccc(O)c(Cl)c3)n2)c1)c1cc(C(F)(F)F)cc(C(F)(F)F)c1` is 5-fold lower in GI50: 19.1 µM for the first, 3.8 µM for the second.

Going from `O=C1c2cccnc2C(=O)c2c1c(C(=O)NCCn1ccnc1)c1ccccn21` to `CCN(CC)c1ccc2nc3c4ccccc4c(=O)cc-3n(-c3ccccc3)c2c1`, the GI50 falls from 2.34 µM to 0.333 µM (7-fold).

First: COc1ccc2nc3cc([N+](=O)[O-])ccc3c(NNc3ccccc3)c2c1
Second: COc1cccc(C2=C(c3cn(C)c4cc(F)ccc34)C(=O)NC2=O)c1
The GI50 of the first is 22-fold lower: 0.616 µM for the first, 13.5 µM for the second.

Compared with `CC(=O)N[C@H](C(=O)N[C@@H](CCCNC(=N)N)C(=O)N[C@@H](CCCCN)C(=O)N[C@@H](CCCNC(=N)N)C(=O)NC(C(=O)N[C@@H](CC(C)C)C(=O)N[C@@H](CCCNC(=N)N)C(=O)N[C@@]1(C)CCC/C=C\CCC[C@@](C)(C(=O)N[C@@H](CCCNC(=N)N)C(=O)N[C@@H](CCC(=O)O)C(=O)N[C@@H](CC(C)C)C(=O)N[C@H](C(=O)N[C@@H](CCC(=O)O)C(N)=O)C(C)C)NC(=O)[C@H](CCC(N)=O)NC(=O)[C@H](CC(C)C)NC(=O)[C@H](CC(C)C)NC1=O)[C@@H](C)O)C(C)C` (stereo partly drawn) (Ac-VRKR[ξThr(3R)]LR[S5]LLQ[S5]RELVE-NH2; staple (Z) 8-12), `CC(c1ccccc1)[C@@H](C(=O)Nc1ccc(I)cc1F)N1C(=O)N[C@H](c2ccc(OC[C@H](O)CO)cc2)C1=O` (stereo partly specified) is 1.5-fold higher in GI50: 7.65 µM for the first, 11.5 µM for the second.

Going from `NC1=NC(=O)/C(=C/c2ccc3ncccc3c2)S1` to `Cc1nc(-c2cnc(NC(C)C)n(C)c2=O)ccc1Oc1ccnc(-c2cnn(C)c2)c1`, the GI50 falls from greater than 17.1 µM to 3.01 µM.

`Cc1ccc(-c2nc(N3CCNCC3)c3oc(-c4ccccc4)nc3n2)cc1` and `Cc1ccc(/C=C/c2c(C(=O)/C=C/c3ccc(Cl)cc3)c(C)nc3ccccc23)cc1` are within 1.5-fold of each other in GI50: 1.81 µM for the first, 2.01 µM for the second.

`O=C(Cc1csc2nc(-c3ccc(Cl)cc3)cn12)N/N=C/c1ccccc1O` and `CCOC(=O)c1c(NC(=O)c2ccccc2)sc2c3c(ccc12)OCN(C)C3` are within 1.5-fold of each other in GI50: 1.57 µM for the first, 1.52 µM for the second.

First: Clc1ccc(Nc2nc(Nc3ccccc3)nc(Nc3ccc(-c4cc(-c5ccc(Cl)cc5)on4)cc3)n2)cc1
Second: COc1ccc(-c2nn(-c3ccc(NC(=O)c4cc(Cl)cc(Cl)c4)cc3)cc2-c2ccncc2)cc1Cl
The GI50 of the first is 3.7-fold higher: 26 µM for the first, 7.06 µM for the second.

Compared with `COc1ccc(Cn2cc3c(c2)-c2oncc2CC3)cc1OC`, `COc1ccc(-c2[nH]nc(N)c2-c2cc(OC)c3c(c2)OCO3)cc1` is 22-fold higher in GI50: 0.0854 µM for the first, 1.86 µM for the second.

First: NC(=O)CC1(O)C=C(Br)C(=O)C(Br)=C1
Second: NC(Cc1c[nH]c2ccc(F)cc12)C(=O)O (stereo unspecified)
The GI50 of the first is 370-fold lower: 1.75 µM for the first, 649 µM for the second.

`CN1CCN(c2ccc(NC(=O)c3cncnc3Nc3ccc(OCc4cccc(F)c4)c(Cl)c3)cc2)CC1` and `CCN(CC)CCC(CNc1ccnc2cc(Cl)ccc12)c1ccccc1` (stereo unspecified) are within 1.5-fold of each other in GI50: 1.71 µM for the first, 2.16 µM for the second.

Going from `Clc1ccc2ncc(-c3cccc(NC4CNC4)n3)n2c1` to `Cc1ccc(Cl)cc1NC(=O)c1cc2ccccc2cc1O`, the TGI falls from 20.5 µM to 7.25 µM (2.8-fold).

First: Cc1ccc(NC(=O)Nc2c(Cl)cccc2Cl)cn1
Second: COc1ccc(Cl)cc1Nc1nc(C(F)(F)F)ccc1C(=O)N/N=C/c1cccnc1
The TGI of the first is 2.7-fold higher: 12.5 µM for the first, 4.66 µM for the second.

`C[C@@H](NC(=O)c1ncnc(N)c1Cl)c1ncc(C(=O)Nc2cc(C(F)(F)F)c(Cl)cn2)s1` and `O=C(Nc1cccc(-n2cc(-c3ccncc3)c(-c3ccc(O)c(Cl)c3)n2)c1)c1cc(C(F)(F)F)cc(C(F)(F)F)c1` are within 1.5-fold of each other in TGI: 52.5 µM for the first, 46 µM for the second.

Going from `CC(C)(C)NC(=O)[C@H]1CC[C@H]2[C@@H]3CC[C@H]4NC(=O)C=C[C@]4(C)[C@H]3CC[C@]12C` to `Cc1nc(-c2cnc(NC(C)C)n(C)c2=O)ccc1Oc1ccnc(-c2cnn(C)c2)c1`, the TGI falls from greater than 100 µM to 73.9 µM.

First: O=C1c2cccnc2C(=O)c2c1c(C(=O)NCCn1ccnc1)c1ccccn21
Second: CCN(CC)c1ccc2nc3c4ccccc4c(=O)cc-3n(-c3ccccc3)c2c1
The TGI of the first is 2.8-fold higher: 5.61 µM for the first, 1.98 µM for the second.

Compared with `COc1ccc2nc3cc([N+](=O)[O-])ccc3c(NNc3ccccc3)c2c1`, `COc1cccc(C2=C(c3cn(C)c4cc(F)ccc34)C(=O)NC2=O)c1` is higher in TGI: 5.37 µM for the first, greater than 25 µM for the second.

First: CC(=O)N[C@H](C(=O)N[C@@H](CCCNC(=N)N)C(=O)N[C@@H](CCCCN)C(=O)N[C@@H](CCCNC(=N)N)C(=O)NC(C(=O)N[C@@H](CC(C)C)C(=O)N[C@@H](CCCNC(=N)N)C(=O)N[C@@]1(C)CCC/C=C\CCC[C@@](C)(C(=O)N[C@@H](CCCNC(=N)N)C(=O)N[C@@H](CCC(=O)O)C(=O)N[C@@H](CC(C)C)C(=O)N[C@H](C(=O)N[C@@H](CCC(=O)O)C(N)=O)C(C)C)NC(=O)[C@H](CCC(N)=O)NC(=O)[C@H](CC(C)C)NC(=O)[C@H](CC(C)C)NC1=O)[C@@H](C)O)C(C)C (stereo partly drawn) (Ac-VRKR[ξThr(3R)]LR[S5]LLQ[S5]RELVE-NH2; staple (Z) 8-12)
Second: CC(c1ccccc1)[C@@H](C(=O)Nc1ccc(I)cc1F)N1C(=O)N[C@H](c2ccc(OC[C@H](O)CO)cc2)C1=O (stereo partly specified)
The TGI of the first is lower: 18.4 µM for the first, greater than 25 µM for the second.

First: NC1=NC(=O)/C(=C/c2ccc3ncccc3c2)S1
Second: Cc1ccc(/C=C/c2c(C(=O)/C=C/c3ccc(Cl)cc3)c(C)nc3ccccc23)cc1
The TGI of the first is higher: greater than 25 µM for the first, 3.82 µM for the second.

`Cc1ccc(-c2nc(N3CCNCC3)c3oc(-c4ccccc4)nc3n2)cc1` and `O=C(Cc1csc2nc(-c3ccc(Cl)cc3)cn12)N/N=C/c1ccccc1O` are within 1.5-fold of each other in TGI: 3.8 µM for the first, 4.92 µM for the second.

`Clc1ccc(Nc2nc(Nc3ccccc3)nc(Nc3ccc(-c4cc(-c5ccc(Cl)cc5)on4)cc3)n2)cc1` and `COc1ccc(-c2nn(-c3ccc(NC(=O)c4cc(Cl)cc(Cl)c4)cc3)cc2-c2ccncc2)cc1Cl` cannot be ordered by TGI: greater than 100 µM for the first, greater than 100 µM for the second.

Going from `COc1ccc(Cn2cc3c(c2)-c2oncc2CC3)cc1OC` to `COc1ccc(-c2[nH]nc(N)c2-c2cc(OC)c3c(c2)OCO3)cc1`, the TGI rises from 0.254 µM to 6.28 µM (25-fold).

First: NC(=O)CC1(O)C=C(Br)C(=O)C(Br)=C1
Second: NC(Cc1c[nH]c2ccc(F)cc12)C(=O)O (stereo unspecified)
The TGI of the first is lower: 7.22 µM for the first, greater than 2500 µM for the second.

Going from `CN1CCN(c2ccc(NC(=O)c3cncnc3Nc3ccc(OCc4cccc(F)c4)c(Cl)c3)cc2)CC1` to `CCOC(=O)c1c(NC(=O)c2ccccc2)sc2c3c(ccc12)OCN(C)C3`, the TGI falls from 8.75 µM to 3.14 µM (2.8-fold).

For `CCN(CC)CCC(CNc1ccnc2cc(Cl)ccc12)c1ccccc1` (stereo unspecified), the TGI was 5.69 µM.

In the case of `Nc1cc(C(F)(F)F)c(-c2cc(N3CCOCC3)nc(N3CCOCC3)n2)cn1`, the GI50 is reported as 0.329 µM and 0.216 µM.
With `CC(C)(C)NC(=O)[C@H]1CC[C@H]2[C@@H]3CC[C@H]4NC(=O)C=C[C@]4(C)[C@H]3CC[C@]12C` the GI50 was 63 µM and > 100 µM.

In the case of `Nc1cc(C(F)(F)F)c(-c2cc(N3CCOCC3)nc(N3CCOCC3)n2)cn1`, the TGI is reported as 2.5 µM and 1.41 µM.
